Experimental data taken from patent publication US20160201063A1, “EPIGENETIC REGULATORS OF FRATAXIN” (RANA THERAPEUTICS, INC., priority 2013, published 2016).

Assays:
[1] = test system: FXN protein; experiment: Western blot of FXN protein in gapmer-treated GM03816 lysates; assay type: cell-based, human; conditions: treated vs untreated
From the text: Next, a Western blot with the Abcam ab48281 FXN and Abcam ab125267 tubulin antibodies were run using treated and untreated GM03816 lysates.

[2] = test system: FXN mRNA; experiment: Gapmer screen in differentiated myotubes, FXN mRNA levels; assay type: cell-based; conditions: 4 days after transfection
From the text: Subsequently, various oligos targeting ACTL6A, EID1, HIC1, JUND, KAT2A, PRKCD, and YEATS4 were screened in differentiated myotubes for FXN mRNA levels. Measurements were taken 4 days after transfection.

[3] = test system: FXN protein; experiment: FXN protein western blot in GM03816 and GM04078 cells treated with histone lysine methyltransferase inhibitor; assay type: cell-based, human; conditions: 3 days of HLMi treatment, 5 μM, 2.5 μM, 1.25 μM, vs DMSO
Experimental: Results from control cells treated with DMSO and without inhibitor treatment are also shown.
Human FRDA diseased cell lines GM03816 and GM04078 were plated at 150000 cells/well. The cells were treated at various concentrations and times with a histone lysine methyltransferase inhibitor dissolved in DMSO. The antibody used for detection of FXM protein was Abcam human FXN antibody (ab48281).

| Molecule | FXN protein level (western blot) [1] | FXN mRNA level [2] | FXN protein level (western blot) [3] |
| --- | --- | --- | --- |
| JUND-1: LNA/DNA gapmer to human JUND, SEQ ID NO 61, CCGTAGAAGGGTGTT (LNA/DNA gapmer, wing pattern not given here) | strong upregulation | upregulation of FXN mRNA | – |
| COc1cc2nc(N3CCCN(C)CC3)nc(NC3CCN(Cc4ccccc4)CC3)c2cc1OC [HLMi, 2-(Hexahydro-4-methyl-1H-1,4-diazepin-1-yl)-6,7-dimethoxy-N-(1-(phenylmethyl)-4-piperidinyl)-4-quinazolinamine] | – | – | FXN human protein upregulation |
| ACTL6A-02: LNA/DNA gapmer to human ACTL6A, SEQ ID NO 2, ATCGCCATCTATTTC (LNA modifications, chemistry not fully specified) | – | upregulation of FXN mRNA | – |
| PRKCD-2: LNA/DNA gapmer to human PRKCD, SEQ ID NO 42, TGCGCATAGACTGTT (LNA modifications, chemistry not fully specified) | strong upregulation | upregulation of FXN mRNA | – |
| EID1-04: LNA/DNA gapmer to human EID1, SEQ ID NO 12, AGCTCTTCGATAAAA (LNA modifications, chemistry not fully specified) | – | upregulation of FXN mRNA | – |
| ACTL6A-03: LNA/DNA gapmer to human ACTL6A, SEQ ID NO 3, GAACGACCATTAGCA (LNA modifications, chemistry not fully specified) | strong upregulation | upregulation of FXN mRNA | – |
